Experimental data taken from patent US6949544B2, “Inhibitors of c-Jun N-terminal kinases (JNK) and other protein kinases” (Vertex Pharmaceuticals Incorporated, priority 2001, dated 2005).
pKi: −log10 of the molar value.

How the values were obtained:
Type in all cases: biochemical
[1] = target: T1, Lck kinase purified from bovine thymus (Bos taurus, UniProt Q3ZCM0); assay: Lck inhibition assay (33P incorporation into poly Glu-Tyr); details: 10 μM ATP; read-out: Activity in the Lck Inhibition Assay (Ki rating A-C)
T1 construct: Lck kinase purified from bovine thymus; purchased Upstate Biotechnology 14-106; host or cells: bovine thymus (tissue-purified)
Procedure: The compounds were assayed as inhibitors of Lck kinase purified from bovine thymus (from Upstate Biotechnology, cat. no. 14-106). Lck kinase activity was monitored by following the incorporation of ^33P from ATP into the tyrosine of a random poly Glu-Tyr polymer substrate of composition, Glu:Tyr=4:1 (Sigma, cat. no. P-0275). The following were the final concentrations of the assay components: 0.05 M HEPES, pH 7.6, 10 mM MgCl2, 2 mM DTT, 0.25 mg/ml BSA, 10 μM ATP (1-2 μCi ^33P-ATP per reaction), 5 mg/ml poly Glu-Tyr, and 1-2 units of lck kinase. In a typical assay, all the reaction components with the exception of ATP were pre-mixed and aliquoted into assay plate wells. […] The assay plate was incubated at 30° C. for 10 min before initiating the reaction with ^33P-ATP. After 20 min of reaction, the reactions were quenched with 150 μl of 10% trichloroacetic acid (TCA) containing 20 mM Na3PO4. The quenched samples were then transferred to a 96-well filter plate (Whatman, UNI-Filter GF/F Glass Fiber Filter, cat no. 7700-3310) installed on a filter plate vacuum manifold. Filter plates were washed four times with 10% TCA containing 20 mM Na3PO4 and then 4 times with methanol. 200 μl of scintillation fluid was then added to each well. The plates were sealed and the amount of radioactivity associated with the filters was quantified on a TopCount scintillation counter.

CDK-2/Cyclin A = CDK-2/Cyclin A (Homo sapiens, UniProt P24941); assay: CDK2 inhibition assay (standard coupled enzyme assay); details: 25 nM CDK-2/Cyclin A; read-out: CDK2 Inhibitory Activity (Ki rating A-C)
Procedure: Compounds were screened in the following manner for their ability to inhibit CDK2 using a standard coupled enzyme assay (Fox et al (1998) Protein Sci 7, 2249).
To an assay stock buffer solution containing 0.1M HEPES 7.5, 10 mM MgCl2, 1 mM DTT, 25 mM NaCl, 2.5 mM phosphoenolpyruvate, […], […], […], […], and 100 μM peptide ([…], American Peptide, Sunnyvale, Calif.) was added a DMSO solution of a compound of the present invention to a final concentration of 30 μM. The resulting mixture was incubated at 30° C. for 10 minutes.
The reaction was initiated by the addition of 10 μL of CDK-2/Cyclin A stock solution to give a final concentration of 25 nM in the assay. The rates of reaction were obtained by monitoring absorbance at 340 nm over a 5-minute read time at 30° C. using a BioRad Ultramark plate reader (Hercules, Calif.). The Ki values were determined from the rate data as a function of inhibitor concentration.

activated JNK3 = target: T2, activated JNK3 (Homo sapiens, UniProt P53779); assay: JNK inhibition assay (spectrophotometric coupled-enzyme assay); details: 10 nM activated JNK3, 10 μM ATP; read-out: Activity in the JNK3 Inhibition Assay (Ki rating A-C)
T2 construct: One such construct encodes amino acid residues Ser40-Glu402 of JNK3α1 and is preceded by Met and Gly residues; Met-Gly (initiator methionine and added glycine) (N); made in house; host or cells: E. coli BL21 (DE3)
Description: A BLAST search of the EST database using the published JNK3α1 cDNA as a query identified an EST clone (#632588) that contained the entire coding sequence for human JNK3α1. Polymerase chain reactions (PCR) using pfu polymerase (Strategene) were used to introduce restriction sites into the cDNA for cloning into the pET-15B expression vector at the NcoI and BamHI sites. The protein was expressed in E. coli. […] This truncation corresponds to Ser 2 of JNK1 and JNK2 proteins, and is preceded by a methionine (initiation) and a glycine residue. The glycine residue was added in order to introduce an NcoI site for cloning into the expression vector. In addition, systematic C-terminal truncations were performed by PCR to identify a construct that give rise to diffraction-quality crystals.
5 mg of JNK3 was diluted to 0.5 mg/ml in 50 mM HEPES buffer, pH 7.5, containing 100 mM NaCl, 5 mM DTT, 20 mM MgCl2 and 1 mM ATP. GST-MKK7(DD) was added at a molar ratio of 1:2.5 GST-MKK7:JNK3. After incubation for 30 minutes at 25° C., the reaction mixture was concentrated 5-fold by ultrafiltration in a Centriprep-30 (Amicon, Beverly, Mass.), diluted to 10 ml and an additional 1 mM ATP added. This procedure was repeated three times to remove ADP and replenish ATP. The final addition of ATP was 5 mM and the mixture incubated overnight at 4° C.
The activated JNK3/GST-MKK7(DD) reaction mixture was exchanged into 50 mM HEPES buffer, pH 7.5, containing 5 mM DTT and 5% glycerol (w/v) by dialysis or ultrafiltration. The reaction mixture was adjusted to 1.1 M potassium phosphate, pH 7.5, and purified by hydrophobic interaction chromatography (at 25° C.) using a Rainin Hydropore column. […] Activated JNK3 (i.e. doubly phosphorylated JNK3) was stored at −70° C. at 0.25-1 mg/ml.
Compounds were assayed for the inhibition of JNK3 by a spectrophotometric coupled-enzyme assay. In this assay, a fixed concentration of activated JNK3 (10 nM) was incubated with various concentrations of a potential inhibitor dissolved in DMSO for 10 minutes at 30° C. in a buffer containing 0.1 M HEPES buffer, pH 7.5, containing 10 mM MgCl2, 2.5 mM phosphoenolpyruvate, 200 μM NADH, 150 μg/mL pyruvate kinase, 50 μg/mL lactate dehydrogenase, and 200 μM EGF receptor peptide. […] The reaction was initiated by the addition of 10 μM ATP and the assay plate is inserted into the spectrophotometer's assay plate compartment that was maintained at 30° C. The decrease of absorbance at 340 nm was monitored as a function of time. The rate data as a function of inhibitor concentration was fitted to competitive inhibition kinetic model to determine the Ki.

T1 sequence (Q3ZCM0 1-509): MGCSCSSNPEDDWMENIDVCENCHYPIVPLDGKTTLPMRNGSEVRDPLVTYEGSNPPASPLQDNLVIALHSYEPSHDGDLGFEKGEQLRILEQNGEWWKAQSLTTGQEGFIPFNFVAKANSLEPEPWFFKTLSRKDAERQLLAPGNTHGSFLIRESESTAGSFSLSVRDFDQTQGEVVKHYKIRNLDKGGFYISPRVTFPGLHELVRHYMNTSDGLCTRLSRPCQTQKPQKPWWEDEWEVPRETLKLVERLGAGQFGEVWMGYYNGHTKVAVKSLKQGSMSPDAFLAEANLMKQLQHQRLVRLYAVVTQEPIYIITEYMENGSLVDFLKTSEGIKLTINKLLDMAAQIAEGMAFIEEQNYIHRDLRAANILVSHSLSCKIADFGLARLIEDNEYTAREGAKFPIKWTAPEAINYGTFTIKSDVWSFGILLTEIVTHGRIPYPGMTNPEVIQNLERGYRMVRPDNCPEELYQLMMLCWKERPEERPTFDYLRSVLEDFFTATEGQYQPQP
T2 sequence (P53779 40-402): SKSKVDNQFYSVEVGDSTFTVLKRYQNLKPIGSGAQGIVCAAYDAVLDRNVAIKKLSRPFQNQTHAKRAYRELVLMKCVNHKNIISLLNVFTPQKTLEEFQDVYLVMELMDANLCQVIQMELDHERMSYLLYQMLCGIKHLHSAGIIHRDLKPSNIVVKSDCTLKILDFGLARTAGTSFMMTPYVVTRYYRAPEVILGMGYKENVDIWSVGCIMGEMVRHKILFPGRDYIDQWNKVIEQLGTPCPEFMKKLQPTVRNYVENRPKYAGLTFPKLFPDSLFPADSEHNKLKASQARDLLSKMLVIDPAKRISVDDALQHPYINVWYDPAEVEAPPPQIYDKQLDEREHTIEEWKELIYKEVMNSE

| Structure (SMILES) | pKi [1] | pKi (CDK-2/Cyclin A) | pKi (activated JNK3) |
| --- | --- | --- | --- |
| COc1ccc(-c2ccnc(Nc3cccc(OCc4ccccc4)c3)n2)c2c1OCCO2 [II-16] | 6.00 to 7.00 |  |  |
| COc1cc(-c2ccnc(Nc3cccc(OCc4ccccc4)c3)n2)cc(OC)c1OC [Compound I-56] |  | < 5.30 | < 6.00 |
| COc1c(Cl)cc(-c2ccnc(Nc3cccc(F)c3)n2)cc1Cl [Compound I-46] |  | < 5.30 | 6.00 to 7.00 |
| COc1cc(-c2ccnc(Nc3cccc(Cl)c3)n2)cc2c1OCO2 [Compound I-30] |  |  | < 6.00 |
| COc1c(C)cc(-c2ccnc(Nc3cccc(F)c3)n2)cc1C [Compound I-47] |  |  | > 7.00 |
| COc1cc(-c2ccnc(Nc3c(F)cccc3F)n2)cc(OC)c1OC [Compound I-2] |  | < 5.30 | 6.00 to 7.00 |
| COc1ccc(-c2ccnc(Nc3cccc(OCc4ccccc4)c3)n2)c(OCCN2CCOCC2)c1OC [II-22] | < 6.00 |  |  |
| COc1ccc(-c2ccnc(Nc3cccc(Oc4ccccc4)c3)n2)c2c1OCCO2 [II-15] | 6.00 to 7.00 |  |  |
| COc1cc(-c2ccnc(Nc3cccc(Cl)c3)c2)cc(OC)c1OC [Compound I-146, (3-Chlorophenyl)-[4-(3,4,5-trimethoxyphenyl)-pyridin-2-yl]-amine] |  |  | 6.00 to 7.00 |
| COc1cc(-c2ccnc(Nc3cccc(F)c3)c2)cc(OC)c1OC [Compound I-154] |  |  | 6.00 to 7.00 |
| CCOc1c(OC)cc(-c2ccnc(Nc3cccc(Cl)c3)n2)cc1OC [Compound I-40] |  | < 5.30 | > 7.00 |
| COc1c(Cl)cc(-c2ccnc(Nc3cccc(C)c3)n2)cc1Cl [Compound I-55] |  | < 5.30 | > 7.00 |
| COc1cc(-c2ccnc(Nc3cccc(F)c3)n2)cc2c1OCO2 [Compound I-29] |  |  | 6.00 to 7.00 |
| COc1cc(-c2ccnc(Nc3cccc(C(F)(F)F)c3)n2)cc2c1OCO2 [Compound I-31] |  |  | < 6.00 |
| CCc1nnc(Nc2nccc(-c3cc(OC)c(OC)c(OC)c3)n2)s1 [Compound I-84] |  |  | < 6.00 |
| COc1cc(-c2ccnc(Nc3cccc(C)c3)n2)cc2c1OCO2 [Compound I-27] |  |  | < 6.00 |
| COc1cccc(Nc2nccc(-c3cc(OC)c4c(c3)OCO4)n2)c1 [Compound I-32] |  | < 5.30 | 6.00 to 7.00 |
| COc1cc(-c2ccnc(Nc3cccc(F)c3)n2)cc(OC)c1OCCN1CCOCC1 [Compound I-44] |  | < 5.30 | > 7.00 |
| CCOc1c(OC)cc(-c2ccnc(Nc3cccc(C)c3)n2)cc1OC [Compound I-54] |  | < 5.30 | > 7.00 |
| COc1cc(-c2ccnc(Nc3ccc(C)cc3)n2)cc2c1OCO2 [Compound I-28] |  |  | 6.00 to 7.00 |
| COc1cc(-c2ccnc(Nc3cccc(C)c3)n2)cc(OC)c1OCCN1CCOCC1 [Compound I-53] |  | < 5.30 | > 7.00 |
| COc1cc(-c2ccnc(Nc3c(F)cccc3F)c2)cc(OC)c1OC [Compound I-151] |  |  | 6.00 to 7.00 |
| COc1cc(-c2ccnc(Nc3ccccc3Cl)c2)cc(OC)c1OC [Compound I-147] |  |  | 6.00 to 7.00 |
| COc1cc(-c2ccnc(Nc3ccccc3)c2)cc(OC)c1OC [Compound I-155] |  |  | 6.00 to 7.00 |
| COc1cc(-c2ccnc(Nc3ccccc3)n2)cc2c1OCO2 [Compound I-26, [4-(7-Methoxy-benzo[1,3]dioxol-5-yl)-pyrimidin-2-yl]-phenyl-amine] |  | < 5.30 | 6.00 to 7.00 |
| CCOc1c(OC)cc(-c2ccnc(Nc3cccc(F)c3)n2)cc1OC [Compound I-45] |  | < 5.30 | > 7.00 |
| COc1cc(-c2ccnc(Nc3cc(Cl)cc(Cl)c3)n2)cc(OC)c1OC [Compound I-23] |  | < 5.30 | > 7.00 |

Results, then the compound that gave them:

| pKi [1] | pKi (CDK-2/Cyclin A) | pKi (activated JNK3) | Structure (SMILES) |
| --- | --- | --- | --- |
|  | < 5.30 |  | COc1ccc(-c2ccnc(Nc3n[nH]c4ccccc34)n2)c(OC)c1OC [II-56] |
|  | < 5.30 | > 7.00 | COc1cc(-c2ccnc(Nc3ccccc3)n2)cc(OC)c1OC [Compound I-15] |
|  | < 5.30 | > 7.00 | COc1cc(-c2ccnc(Nc3cccc(C(F)(F)F)c3)n2)cc(OC)c1OC [Compound I-19] |
| 6.00 to 7.00 |  |  | COc1ccc(-c2ccnc(Nc3cccc(OCc4ccccc4)c3)n2)c(OC)c1OC [II-2] |
|  |  | > 7.00 | COc1cc(-c2ccnc(Nc3ccc(C)c(C)c3)n2)cc(OC)c1OC [Compound I-25] |
| > 7.00 |  |  | COc1ccc(Oc2ccccc2)cc1Nc1nccc(-c2ccc(OC)c(OC)c2OC)n1 [II-31] |
| 6.00 to 7.00 |  |  | COc1ccc(Nc2nccc(-c3ccc(OC)c(OC)c3OC)n2)cc1 [II-12] |
| > 7.00 |  |  | COc1ccc(-c2ccnc(Nc3cccc(-c4ccc(Cl)cc4)c3)n2)c(OC)c1OC [II-40] |
| 6.00 to 7.00 |  |  | COc1ccc(-c2ccnc(Nc3cccc(-c4ccccc4Cl)c3)n2)c(OC)c1OC [II-38] |
| > 7.00 |  |  | COc1ccc(-c2cccc(Nc3nccc(-c4ccc(OC)c(OC)c4OC)n3)c2)cc1 [II-43] |
|  | < 5.30 | 6.00 to 7.00 | COc1cc(-c2ccnc(Nc3cc(C)cc(C)c3)n2)cc(OC)c1OC [Compound I-24] |
|  |  | > 7.00 | COc1ccc(Nc2nccc(-c3cc(OC)c(OC)c(OC)c3)n2)cc1 [Compound I-21] |
|  |  | < 6.00 | COc1cc(-c2ccnc(Nc3ccc(F)cc3)n2)cc(OC)c1OC [Compound I-14] |
|  | < 5.30 | < 6.00 | COc1cc(-c2ccnc(Nc3c(C)cccc3C)n2)cc(OC)c1OC [Compound I-8] |
|  |  | > 7.00 | COc1cc(-c2ccnc(Nc3ccc(C)cc3)n2)cc(OC)c1OC [Compound I-17] |
|  | < 5.30 | > 7.00 | COc1cc(-c2ccnc(Nc3cccc([N+](=O)[O-])c3)n2)cc(OC)c1OC [Compound I-36] |
|  | < 5.30 | 6.00 to 7.00 | COc1ccc(Nc2nccc(-c3cc(OC)c4c(c3)OCO4)n2)cc1 [Compound I-33] |
|  | < 5.30 | > 7.00 | COc1cc(-c2ccnc(Nc3ccccc3C)n2)cc(OC)c1OC [Compound I-16] |
|  | < 5.30 | 6.00 to 7.00 | COc1cc(-c2ccnc(Nc3ccccc3C)n2)cc(OC)c1OC [Compound I-7] |
|  | < 5.30 | > 7.00 | COc1cc(-c2ccnc(Nc3ccc([N+](=O)[O-])cc3)n2)cc(OC)c1OC [Compound I-11] |
